# Literature values, collected in patent publication US6716451B1 (Soft Gel Technologies, Inc., priority 1999, dated 2004).
# Like-named read-outs stand apart in the source and are kept apart here.
# How the values were obtained:
# [1] = system: human breast cancer cell; settings: in vitro
# [2] = subjects taking at least 100 IU daily; more than 12,000 adults
Compound,inhibition of growth of human breast cancer cells compared with Tamoxifen [1],decrease in heart disease risk [2] [%],"adverse effects (50 mg/day for 1 to 8.2 years, cardiovascular clinical studies)","adverse effects (oral 50 to 400 IU per day, double-blind clinical studies)"
CC(C)=CCC/C(C)=C/CC/C(C)=C/CC[C@]1(C)CCc2cc(O)c(C)c(C)c2O1 [γ-tocotrienol],"more effectively than the popular breast cancer drug, Tamoxifen",,,
Vitamin E,,40,without any adverse effects,did not show any adverse effects
